Measurements reported in ChEMBL document CHEMBL4190189, “Exploring Jolkinol D Derivatives To Overcome Multidrug Resistance in Cancer” (J Nat Prod, 2017).

Key:
[1] = molecular target: T1, ATP-dependent translocase ABCB1 (Homo sapiens, UniProt P08183); experiment: Inhibition of human ABCB1 expressed in mouse L5178Y cells assessed as potentiation of doxorubicin-induced cytotoxicity by measuring combination index at 15:1 compound to doxorubicin ratio after 48 hrs by MTT assay; format: cell-based
[2] = Induction of apoptosis in human EPP85-181RDB cells at 30 uM after 72 hrs by annexin-V/propidium iodide staining based flow cytometric method relative to control; format: functional
[3] = system: L5178Y; experiment: Cytotoxicity against mouse L5178Y cells assessed as reduction in cell viability after 72 hrs by MTT assay; format: cell-based
[4] = Cytotoxicity against human EPP85-181RNOV cells assessed as reduction in cell viability after 5 days by SRB assay; format: functional, cell-based; details: 120 h
[5] = molecular target: T1, ATP-dependent translocase ABCB1; experiment: Modulation of human ABCB1 expressed in mouse L5178Y cells assessed as fluorescence activity ratio at 2 uM pretreated for 10 mins followed by rhodamine-123 addition measured after 20 mins by flow cytometry (reference value: 0.87); format: cell-based
[6] = Induction of apoptosis in human EPP85-181RNOV cells at 30 uM after 72 hrs by annexin-V/propidium iodide staining based flow cytometric method relative to control; format: functional
[7] = system: L5178Y; experiment: Cytotoxicity against mouse L5178Y cells transfected with human ABCB1 assessed as reduction in cell viability after 72 hrs by MTT assay; format: functional, cell-based
[8] = Cytotoxicity against human EPP85-181P cells assessed as reduction in cell viability after 5 days by SRB assay; format: cell-based; details: 120 h
[9] = Cytotoxicity against human EPP85-181RDB cells assessed as reduction in cell viability after 5 days by SRB assay; format: functional, cell-based; details: 120 h
[10] = Cytotoxicity against human EPG85-257RNOV cells assessed as reduction in cell viability after 5 days by SRB assay; format: functional, cell-based; details: 120 h
[11] = molecular target: T1, ATP-dependent translocase ABCB1; experiment: Modulation of human ABCB1 expressed in mouse L5178Y cells assessed as fluorescence activity ratio at 20 uM pretreated for 10 mins followed by rhodamine-123 addition measured after 20 mins by flow cytometry (reference value: 0.87); format: cell-based
[12] = Resistance ratio of IC50 for human EPG85-257P cells to IC50 for human EPG85-257RDB cells; format: functional
[13] = molecular target: T1, ATP-dependent translocase ABCB1; experiment: Inhibition of human ABCB1 expressed in mouse L5178Y cells assessed as potentiation of doxorubicin-induced cytotoxicity by measuring combination index at 25:1 compound to doxorubicin ratio after 48 hrs by MTT assay; format: cell-based
[14] = Resistance ratio of IC50 for human EPP85-181P cells to IC50 for human EPP85-181RDB cells; format: functional
[15] = Resistance ratio of IC50 for human EPP85-181P cells to IC50 for human EPP85-181RNOV cells; format: functional
[16] = Induction of apoptosis in human EPG85-257RNOV cells at 30 uM after 72 hrs by annexin-V/propidium iodide staining based flow cytometric method relative to control; format: functional
[17] = Induction of apoptosis in human EPG85-257RDB cells at 30 uM after 72 hrs by annexin-V/propidium iodide staining based flow cytometric method relative to control; format: functional
[18] = Induction of apoptosis in human EPG85-257RDB cells assessed as caspase-3 activation at 30 uM after 72 hrs by flow cytometric method relative to control; format: functional
[19] = Induction of apoptosis in human EPP85-181RNOV cells assessed as caspase-3 activation at 30 uM after 72 hrs by flow cytometric method relative to control; format: functional
[20] = Induction of apoptosis in human EPG85-257P cells assessed as caspase-3 activation at 30 uM after 72 hrs by flow cytometric method relative to control; format: cell-based; details: EPG85-257P cells, read-out: FC
[21] = Induction of apoptosis in human EPG85-257RNOV cells assessed as caspase-3 activation at 30 uM after 72 hrs by flow cytometric method relative to control; format: functional
[22] = Induction of apoptosis in human EPG85-257P cells at 30 uM after 72 hrs by annexin-V/propidium iodide staining based flow cytometric method relative to control; format: cell-based
[23] = Resistance ratio of IC50 for human EPG85-257P cells to IC50 for human EPG85-257RNOV cells; format: functional
[24] = molecular target: ABCB1 (P-glycoprotein) ATPase (Homo sapiens, UniProt P08183); experiment: Inhibition of human ABCB1 ATPase activity expressed in Sf9 insect cell membranes assessed as reduction in verapamil-stimulated vanadate-sensitive ATPase activity at 1.56 to 25 uM measured after 10 mins by colorimetric method relative to control; details: Sf9 insect cell membranes expressing human ABCB1, probe verapamil (ATPase stimulator)
Sequence of ABCB1 (P-glycoprotein) ATPase (P08183 whole entry): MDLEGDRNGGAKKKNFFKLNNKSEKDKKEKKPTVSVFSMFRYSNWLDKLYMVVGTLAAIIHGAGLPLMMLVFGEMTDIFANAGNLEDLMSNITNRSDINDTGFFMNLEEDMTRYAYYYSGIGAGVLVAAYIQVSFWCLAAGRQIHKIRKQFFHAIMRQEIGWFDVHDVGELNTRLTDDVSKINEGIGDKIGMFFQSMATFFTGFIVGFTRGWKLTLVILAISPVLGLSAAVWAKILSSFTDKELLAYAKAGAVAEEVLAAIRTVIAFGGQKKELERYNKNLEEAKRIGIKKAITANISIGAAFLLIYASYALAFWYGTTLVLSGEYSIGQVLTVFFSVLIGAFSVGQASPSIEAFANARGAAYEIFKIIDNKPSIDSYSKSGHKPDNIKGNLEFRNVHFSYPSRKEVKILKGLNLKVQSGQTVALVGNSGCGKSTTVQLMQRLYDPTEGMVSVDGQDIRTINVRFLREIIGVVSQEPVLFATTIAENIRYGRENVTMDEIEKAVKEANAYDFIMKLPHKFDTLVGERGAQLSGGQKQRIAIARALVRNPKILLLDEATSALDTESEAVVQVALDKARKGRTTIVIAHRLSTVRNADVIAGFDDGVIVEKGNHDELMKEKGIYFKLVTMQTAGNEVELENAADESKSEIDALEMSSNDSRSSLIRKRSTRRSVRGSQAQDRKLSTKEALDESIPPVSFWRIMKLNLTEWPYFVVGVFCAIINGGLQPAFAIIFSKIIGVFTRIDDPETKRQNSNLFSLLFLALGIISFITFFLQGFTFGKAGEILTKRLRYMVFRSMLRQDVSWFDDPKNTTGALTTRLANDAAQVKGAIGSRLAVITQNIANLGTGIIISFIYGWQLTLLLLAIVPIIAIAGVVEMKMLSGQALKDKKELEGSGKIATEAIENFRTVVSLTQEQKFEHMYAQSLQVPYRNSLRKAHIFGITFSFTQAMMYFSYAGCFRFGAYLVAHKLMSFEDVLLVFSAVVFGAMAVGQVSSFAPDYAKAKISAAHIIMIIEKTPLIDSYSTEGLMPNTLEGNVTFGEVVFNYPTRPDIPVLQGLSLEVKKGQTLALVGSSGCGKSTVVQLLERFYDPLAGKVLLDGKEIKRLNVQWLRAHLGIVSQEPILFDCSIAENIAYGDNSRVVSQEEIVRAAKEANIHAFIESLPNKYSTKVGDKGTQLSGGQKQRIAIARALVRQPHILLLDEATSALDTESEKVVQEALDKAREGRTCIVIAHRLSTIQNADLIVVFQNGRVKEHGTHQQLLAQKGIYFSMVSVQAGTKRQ

[25] = molecular target: T1, ATP-dependent translocase ABCB1; experiment: Inhibition of human ABCB1 ATPase activity expressed in Sf9 insect cell membranes assessed as reduction in verapamil-stimulated vanadate-sensitive ATPase activity at 50 to 100 uM measured after 10 mins by colorimetric method
[26] = molecular target: T1, ATP-dependent translocase ABCB1; experiment: Inhibition of human ABCB1 expressed in mouse L5178Y cells assessed as potentiation of doxorubicin-induced cytotoxicity by measuring combination index at 10:1 compound to doxorubicin ratio after 48 hrs by MTT assay; format: cell-based

T1 sequence (P08183 whole entry): as above

Compound | Ratio [5] | Ratio [11] | IC50 [3] [µM] | IC50 [7] [µM] | IC50 [10] [µM] | Ratio IC50 [12] | also measured
C/C1=C/[C@H]2[C@@H](OC(=O)c3ccc(-c4ccccc4)cc3)[C@@H](C)C[C@]2(O)C(=O)/C(C)=C/[C@@H]2[C@H](CC1)C2(C)C | 4.8 | 19 | > 19 | > 80 | – | – | Ratio IC50 [14]: 0.4; Ratio IC50 [15]: 0.4
CC(=O)O[C@]12C[C@H](C)[C@H](OC(=O)c3cccc(C(F)(F)F)c3)[C@@H]1/C=C(/C)CC[C@H]1[C@@H](/C=C(\C)C2=O)C1(C)C | – | – | – | – | – | – | fold change (FC) [16]: 4; fold change (FC) [2]: 3.5; fold change (FC) [17]: 6; fold change (FC) [6]: 4.5; fold change (FC) [18]: 6 - 9; fold change (FC) [19]: 12; fold induction at 72 h, 30 µM [20]: 6 to 9; fold change (FC) [21]: 6 - 9; fold change (FC) [22]: 4
CC(=O)O[C@]12C[C@H](C)[C@H](OC(=O)c3ccc(C(F)(F)F)cc3)[C@@H]1/C=C(/C)CC[C@H]1[C@@H](/C=C(\C)C2=O)C1(C)C | 9.4 | 25.4 | > 19 | > 80 | < 10 | 0.4 | Ratio IC50 [23]: 0.2
C/C1=C/[C@H]2[C@@H](OC(=O)c3ccc(C(F)(F)F)cc3)[C@@H](C)C[C@]2(O)C(=O)/C(C)=C/[C@@H]2[C@H](CC1)C2(C)C | 3 | 9.9 | > 19 | > 80 | – | – | Ratio IC50 [14]: 0.4

More lines, main results first:

Ratio [5] | Ratio [11] | Compound | IC50 [3] [µM] | IC50 [7] [µM] | IC50 [10] [µM] | Ratio IC50 [12] | also measured
12.6 | 29 | CC(=O)O[C@]12C[C@H](C)[C@H](OC(=O)C34CC5CC(CC(C5)C3)C4)[C@@H]1/C=C(/C)CC[C@H]1[C@@H](/C=C(\C)C2=O)C1(C)C | > 19 | > 19 | < 10 | – | CI [1]: 1.11; fold change (FC) [2]: 17; IC50 [4]: 6.63 µM; fold change (FC) [6]: 5; IC50 [8]: 8.61 µM; IC50 [9]: 5.86 µM
26.1 | 36.4 | COc1cccc(C(=O)O[C@H]2[C@@H](C)C[C@]3(OC(C)=O)C(=O)/C(C)=C/[C@@H]4[C@H](CC/C(C)=C\[C@@H]23)C4(C)C)c1 | > 19 | > 19 | – | 0.3 | CI [13]: 0.84
2.2 | 18 | CC(=O)O[C@]12C[C@H](C)[C@H](OC(=O)c3cccc(C)c3)[C@@H]1/C=C(/C)CC[C@H]1[C@@H](/C=C(\C)C2=O)C1(C)C | > 19 | > 80 | < 10 | – | –
33.3 | 39.6 | COc1ccccc1C(=O)O[C@H]1[C@@H](C)C[C@]2(OC(C)=O)C(=O)/C(C)=C/[C@@H]3[C@H](CC/C(C)=C\[C@@H]12)C3(C)C | > 19 | > 19 | – | 0.2 | inhibition at 10 min [24]: 100%; inhibition (INH) [25]: Active; CI [26]: 0.09
